# pIC50: −log10 of the molar value. Entries after “also recorded” stand apart in the source; their conditions may differ. Where two headings read alike, the source gives them in different places.
# Experiments:
# p53 target genes = experiment: Quantitative RT-PCR of p53 target genes in LNCaP cells; assay type: cell-based
# Procedure: RNA was extracted using RNEasy columns (Qiagen) according to manufacturer's protocols. cDNA was generated from RNA by reverse transcriptase (Transcriptor First Strand cDNA kit, Roche). Quantitative real-time RT-PCR was performed using SYBR Green PCR Master Mix (Applied Biosystems) on an ABI 7300 instrument. mRNA was measured relative to B glucuronidase as an endogenous control.
# The cells were then treated with 1, 3, and 10 μM of 78 for 72 h. Total cellular RNA was extracted using RNEasy columns (Qiagen) following the manufacturer's protocols. Isolated RNA was reverse transcribed with Transcriptor First Strand cDNA kit (Roche). Quantitative real-time PCR was performed using SYBR Green PCR Master Mix (Applied Biosystems) on an ABI 7300 instrument. Amplification of p21, IGFBP3, and GADD45A cDNA was measured relative to β-glucuronidase using previously published primers (24). Experiments were performed in biological replicates.
# [1] = Liver microsomal stability, mouse; conditions: 1 μM, Mouse, 1 hr at 37° C., 1 mg/ml microsomes
# Procedure: (§3) Briefly, each polyamide was incubated with 1 mg/ml human or mouse microsomes at 37° C. The reaction was incubated in 100 mM KH2PO4, 2 mM NADPH, 3 mM MgCl2 at pH 7.4. Samples were also incubated in the absence of NADPH to detect NADPH-free degradation. After 60 min the samples were mixed with an equal volume of ice cold methanol stop solution. The mixture was allowed to sit on ice for at least 10 min and mixed with an equal volume of water. The samples were then centrifuged to remove the precipitates and the samples were analyzed by LC/MS/MS. Data represents % remaining by comparing with time zero concentration. The experiments were performed in duplicate.
# [2] = Escalating single dose subcutaneous injections, male C57BL/6J mice (weight, histopathology, serum)
# Procedure: Representative mice (n=2 per dosing group unless otherwise noted) were subjected to histopathology analysis by a veterinary pathologist. Blood from all mice was sampled and sent for analysis of serum markers of target organs. […] These mice were euthanized when significant duress was apparent.
# All animal experiments were conducted under an approved protocol at the California Institute of Technology. Animals were allowed to adjust for 3 days after arrival before treatment. […] Animals were monitored daily for weight loss over 9 days and sacrificed. […] Weight was recorded on days of injection and at the experiment endpoint.
# Sacrificed animals from weight loss experiments were fixed in 10% formalin and sent for histopathology analysis by IDEXX-RADIL. Histopathologic analysis was performed on the cecum, duodenum, heart, ileum, kidney, liver, lung, pancreas, spleen, and stomach. Tissue analysis was performed as a blind study to the identity of the animals.
# Serum from treated animals were collected by retroorbital bleeding. Blood samples were centrifuged at 6,000 rpm for 5 min to collect the serum. Serum ALT, AST, total bilirubin, BUN, and creatinine levels were sent for analysis by IDEXX-RADIL. Serum analysis was performed as a blind study to the identity of the animals.
# [3] = Liver microsomal stability, human; conditions: 1 μM, Human, 1 hr at 37° C., 1 mg/ml microsomes
# LNCaP xenografts = LNCaP xenografts in male NSG mice; assay type: in vivo; conditions: six injections
# Procedure: All mice experiments were conducted under an approved protocol by the Institutional Animal Care and Use Committee of the California Institute of Technology. Male NOD scid gamma (NSG) mice were purchased from The Jackson Laboratory. The animals were individually caged and maintained on a standard light-dark cycle. NSG mice were engrafted with LNCaP cells (2.5 million cells) in a mixture of 1:1 media and matrigel in the left flank. Tumors were grown to ˜100 mm^3 (L×W^2) before beginning treatment with compound or vehicle. Py-Im polyamide 77 was administered once every 3 days in a 5% DMSO:PBS vehicle solution until the experiment endpoint.
# To investigate if polyamide 77 could be detected in peripheral blood after SC injections, 120 nmol of 77 (in 5% DMSO/PBS) was injected into the right flank of four C57BL/6 mice. Blood was collected from anesthetized mice via retroorbital collection at 5 minutes, 4 h, and 12 h after injection, then processed by methods previously described and analyzed by HPLC (35). For measurement of serum PSA (KLK3) and uric acid, blood was collected from anesthetized mice via retroorbital collection at experimental endpoint and serum was separated from blood by centrifugation. Serum PSA (KLK3) was measured by ELISA (R&D systems) according to manufacturer's instructions. Uric acid was measured as described (36).
# Tumors were resected immediately after euthanasia and fixed in neutral buffered formalin. Selected samples were embedded in paraffin, sectioned and stained with hematoxylin and eosin (H&E). Selected sections were assessed by deoxynucleotidyltransferase dUTP nick-end labeling (TUNEL) as described (45).
# Mice experiments were conducted under an approved protocol by the Institutional Animal Care and Use Committee of the California Institute of Technology. Male C57BL6/J mice and male NSG mice were purchased from The Jackson Laboratory. All animals were maintained on a standard light-dark cycle. LNCaP cells (2.5 million cells) were engrafted in a mixture of 1:1 media and matrigel in the left flank of NSG mice. Tumors were allowed grow to ˜200 mm^3 (0.5×L×W^2) before treatment. Py-Im polyamide 78 was administered by SC injection once every 3 d at 1 mg/kg in a 20% (vol/vol) DMSO:Normal saline vehicle solution for 6 injections. Animals were sacrificed two days after the final injection. Animal weight and general health were monitored daily. Fourteen animals were used for each treatment group.
# [4] = Six-injection regimen of 78 in healthy male C57BL/6J mice, serum chemistry and hematology; assay type: in vivo; conditions: SC 1 mg/kg, six injections
# Procedure: To assess the toxicity of the treatment regimen in healthy animals, male C57BL/6J mice were treated with an identical regimen as the tumor-bearing mice and were sacrificed two days after the final injection. Because the liver and kidney were identified as the target organs of toxicity in our previous study, we assessed relevant serum markers for liver and kidney pathology (FIG. 33D). […] To examine if 78 has an effect on circulating blood counts, whole blood was sampled before treatment and at the time of sacrifice.
# (§1) Serum from treated animals were collected by retroorbital bleeding. […] All samples were sent for analysis at IDEXX-RADIL.
# p53 = p53 protein ELISA in LNCaP cells; assay type: cell-based; conditions: polyamide 10 μM 72 hr; doxorubicin 1 μM 24 hr
# Procedure: (§2) Cellular levels of RPB1 and p53 protein in LNCaP cells after treatment with 10 μM 3 for 72 h were determined by ELISA. Cells treated with DMSO vehicle and 1 μM doxorubicin for 24 h were used as control. Cellular RBP1 levels were determined by a RPB1 specific ELISA kit (Cusabio Life Sciences) according to manufacturer's instructions. Total cellular p53 protein level was determined with a pan-p53 ELISA kit (Roche) according to manufacturer's instructions. Assays were performed in biological triplicates.
# LNCaP cells = experiment: Cell viability WST-1 assay; assay type: cell-based; conditions: 72 hr incubation; read-out: half maximal inhibitory concentration, viability of LNCaP cells
# Procedure: LNCaP cells were plated in clear bottom 96 well plates at 5,000-7,500 cells per well. The cells were allowed to adhere for 24-36 h before compounds were added in fresh media. Cell viability was determined by the WST-1 assay (Roche) for 77 and 85 after 24 h or 72 h incubation with cells. Cells in cytotoxicity rescue experiments were treated with 85 alone or with 3 μM for 24 h.
# LNCaP cells were plated in clear bottom 96-well plates at 5,000-7,500 cells per well and allowed to adhere for 36-48 h. Compounds were then added in fresh media. Cell metabolic activity was determined by the WST-1 assay (Roche) after 72-h incubation with cells. Quantification was performed on a Perkin Elmer Victor 3 plate reader. Assays were performed in biological triplicates.
# [5] = Multiple-dose subcutaneous injections, male C57BL/6J mice; assay type: in vivo; conditions: 1 mg/kg SC every 3 days
# Procedure: In addition to single dose injections, the effects of repeated dosing of polyamides 77-80 in mice were examined. In this experiment, 8 week-old male C57BL/6J mice (n=3 per dosing group) were treated with 1 mg/kg of polyamides 77-80 by subcutaneous injection every 3 days, for a cycle of three injections and then sacrificed two days after the final injection (FIG. 31A). As in the single dosing experiments, two mice per group were subjected to histopathology analysis and all blood samples were sent for analysis. […] These mice were promptly euthanized.
# as §1
# RPB1 = RPB1 protein ELISA in LNCaP cells; assay type: cell-based
# Procedure: as §2, with “Cellular levels of RPB1 and p53 protein in LNCaP cells after treatment with 10 μM 3 for 72 h were determined by ELISA.” left out
# [6] = human, microsomes, 1 h, 1 μM, pH 7.4
# [7] = mouse, microsomes, 1 h, 1 μM, pH 7.4
# Procedure: as §3
smiles,measurement,setting,value
"CC(=O)N[C@H](CCNC(=O)c1cc(NC(=O)c2cc(NC(=O)c3cc(NC(=O)c4nccn4C)cn3C)cn2C)cn1C)C(=O)Nc1cn(C)c(C(=O)Nc2cc(C(=O)Nc3cc(C(=O)Nc4cc(C(=O)NCCCN(C)CCCNC(=O)c5cccc(C(=O)O)c5)n(C)c4)n(C)c3)n(C)c2)n1 [Polyamide 78, ImPyPyPy-2-(R)^AcHNγ-ImPyPyPy-NHMe-IPA]",induction of p53 target genes,p53 target genes,induced by 78 in a dose-dependent fashion
same,Mean remaining parent NADPH-free,[1],100%
same,Mean remaining parent with NADPH,[1],97.3%
same,"tolerability, behavior and morbidity after single SC dose","[2]; 1, 3, 10 mg/kg",no change in behavior and appearance
same,overall toxicity / organ damage,"[2]; single SC 1, 3, 10 mg/kg",no detectable toxicity at any dose level tested; also recorded: no detectable animal toxicity at 10 mg/kg
same,serum kidney markers creatinine and BUN,[2]; single SC dose,no elevation of these markers at the dose levels tested
same,"serum liver markers AST, ALT, total bilirubin",[2]; single SC dose,no elevation of these markers at the dose levels tested
same,Mean remaining parent NADPH-free,[3],94.9%
same,Mean remaining parent with NADPH,[3],95.3%
same,T/C (tumor weight),LNCaP xenografts; SC 1 mg/kg every three days,52.4%
same,weight loss and distress during xenograft treatment,LNCaP xenografts; SC 1 mg/kg,minimal weight loss and no signs of distress
same,circulating blood counts,[4],No significant hematologic changes
same,serum markers for liver and kidney pathology,[4],"no elevations in AST, ALT, total bilirubin, creatinine, or BUN"
same,cellular level of p53 protein,p53,increases
same,pIC50,LNCaP cells,5.68
same,liver and kidney histopathology,[5],no histopathologic lesions consistent with toxicity
same,liver and kidney serum markers,[5],no histopathologic lesions consistent with toxicity or alterations in liver and kidney serum markers
same,weight and physical morbidity,[5]; three injections,no loss in weight or physical morbidities
same,RPB1 levels,RPB1; 1 μM for 72 h as printed,reduced RPB1 levels
same,RPB1 protein,"RPB1; polyamide 10 μM 72 hr, doxorubicin 1 μM 24 hr",decreases
CC(=O)CC(c1ccccc1)c1c(O)c2ccccc2oc1=O (stereo not drawn) [Warfarin],Mean remaining parent NADPH-free,[6],100%
same,Mean remaining parent with NADPH,[6],100%
same,Mean remaining parent NADPH-free,[7],100%
same,Mean remaining parent with NADPH,[7],100%

# Reference: patent US20170260169A1, “INHIBITORS FOR STEROID RESPONSE ELEMENTS AND RNA POLYMERASE II AND RELATED METHODS” (priority 2007, published 2017)
